From patent EP0076622A1, “Anthelmintics” (BEECHAM GROUP PLC, priority 1981, dated 1983)

System: Nematospiroides dubius
Experiment: Oral activity against experimental infections of Nematospiroides dubius in the mouse (worm numbers of treated vs untreated control animals)
Assay type: in vivo
Settings: calculated from worm numbers of treated and control animals; for inhibition in vivo at 200 mg/kg / inhibition in vivo at 100 mg/kg: Heligmosomoides polygyrus, po
Experimental: The oral activity of the following compounds, against experimental infections of Nematospiroides dubius in the mouse, was calculated from a comparison of the worm numbers of treated and control (untreated) animals.

CSC(=Nc1cccc(C2CN3CCSC3=N2)c1)Nc1ccc(C)cc1 (stereo not shown) [Example 19, S-Methyl-N-[4-methylphe_nyl]-N'-[3-(6-{2,3,5,6-tetra-hydroimidazo[2,1-b]thiazolyl})phenyl]isothiourea]
inhibition in vivo at 200 mg/kg (Dose 200 mg/kg (p.o.)): 0%

CSC(=Nc1cccc(C2CN3CCSC3=N2)c1)Nc1cccc(Cl)c1 (stereo not shown) [Example 20]
inhibition in vivo at 100 mg/kg (Dose 100 mg/kg (p.o.)): 87%
inhibition in vivo at 200 mg/kg (Dose 200 mg/kg (p.o.)): 100%

CSC(=Nc1cccc(C2CN3CCSC3=N2)c1)NCc1ccccc1 (stereo not shown) [Example 75]
inhibition in vivo at 200 mg/kg (Dose 200 mg/kg (p.o.)): 54%

S-Methyl-N-[4-nitrophenyl]-N'-[3-(6-{2,3,5,6-tetra- hydroimidaza[2,1-b]thiazolyl})phenyl]isothiourea [Example 16]
Activity % (Dose 50 mg/kg (p.o.)): 95%
Activity % (Dose 100 mg/kg (p.o.)): 100%
Activity % (Dose 200 mg/kg (p.o.)): 100%

S-Methyl-N-[3,4-dichlorophenyl]-N'-[3-(6{2,3,5,6-tetra- hydroimidazo[2,1-b]thiazolyl}) phenyl]isothiourea [Example 18]
Activity % (Dose 200 mg/kg (p.o.)): 34%

CSC(=Nc1cccc(C2CN3CCSC3=N2)c1)Nc1ccc(F)cc1 (stereo not shown) [Example 14, S-Methyl-N-[4-fluorophenyl]-N'-[3-(6-{2,3,5,6-tetra-hydroimidazo [2,1-b]thiazolyl})phenyl]isothiourea]
inhibition in vivo at 200 mg/kg (Dose 200 mg/kg (p.o.)): 100%

S-Methyl-N-[4-cyanophenyl]-N'-[3-(6-{2,3.5,6-tetra- hydroimidazo[2,1-b]thiazolyl})phenyl]isothiourea [Example 24]
Activity % (Dose 100 mg/kg (p.o.)): 99%
Activity % (Dose 200 mg/kg (p.o.)): 100%

CSC(=Nc1cccc(C2CN3CCSC3=N2)c1)Nc1cccc(C)c1 (stereo not shown) [Example 57]
inhibition in vivo at 100 mg/kg (Dose 100 mg/kg (p.o.)): 40%
inhibition in vivo at 200 mg/kg (Dose 200 mg/kg (p.o.)): 100%

CCSC(=Nc1cccc(C2CN3CCSC3=N2)c1)Nc1ccccc1 (stereo not shown) [Example 22, S-Ethyl-N-phenyl-N'-[3-(6{2,3,5,6-tetrahydroimidazo-[2,1-b]thiazolyl})phenyl]isothiourea]
inhibition in vivo at 200 mg/kg (Dose 200 mg/kg (p.o.)): 92%

S-Methyl-N-[4-acetylphenyl]-N'-[3-(6-{2,3,5,6-tetra- hydroimidazo-[2,1-b]thiazolyl})phenyl]isothiourea [Example 25]
Activity % (Dose 100 mg/kg (p.o.)): 93%
Activity % (Dose 200 mg/kg (p.o.)): 100%

CSC(=Nc1cccc(C2CN3CCSC3=N2)c1)Nc1ccc(C)c(C)c1 (stereo not shown) [Example 56]
inhibition in vivo at 200 mg/kg (Dose 200 mg/kg (p.o.)): 0%

COc1ccc(NC(=Nc2cccc(C3CN4CCSC4=N3)c2)SC)cc1 (stereo not shown) [p-C6H4OCH3]
inhibition in vivo at 200 mg/kg (Dose 200 mg/kg (p.o.)): 59%

CSC(=Nc1cccc(C2CN3CCSC3=N2)c1)Nc1ccc(Cl)cc1 (stereo not shown) [Example 17, S-Methyl-N-[4-chlorophenyl]-N'-[3-(6-{2,3,5,6-tetra-hydroimidazo[2,1-b]thiazolyl})phenyl]isothiourea]
inhibition in vivo at 200 mg/kg (Dose 200 mg/kg (p.o.)): 88%

CSC(=Nc1cccc(C2CN3CCSC3=N2)c1)Nc1cccc([N+](=O)[O-])c1 (stereo not shown) [Example 58]
inhibition in vivo at 100 mg/kg (Dose 100 mg/kg (p.o.)): 95%
inhibition in vivo at 200 mg/kg (Dose 200 mg/kg (p.o.)): 95%

CSC(=Nc1cccc(C2CN3CCSC3=N2)c1)NC1CCCCC1 (stereo not shown) [Example 76]
inhibition in vivo at 200 mg/kg (Dose 200 mg/kg (p.o.)): 15%

CSC(=Nc1cccc(C2CN3CCSC3=N2)c1)Nc1cccc(F)c1 (stereo not shown) [Example 15, S-Methyl-N-[3-fluorophenyl]-N'-[3-(6-{2,3,5,6-tetra-hydroimidazo[2,1-b]thiazolyl})phenyl]isothiourea]
inhibition in vivo at 100 mg/kg (Dose 100 mg/kg (p.o.)): 100%
inhibition in vivo at 200 mg/kg (Dose 200 mg/kg (p.o.)): 100%

CSC(=Nc1cccc(C2CN3CCSC3=N2)c1)Nc1ccccc1 (stereo not shown) [Example 13]
inhibition in vivo at 200 mg/kg (Dose 200 mg/kg (p.o.)): 99%
